Measurements as given in the supplement of paper PMC10307832.

Key:
Experiment in all cases: relative viability (nuclei count vs DMSO), 5 days (fraction); higher = more cells survive
Sunitinib = compound: CCN(CC)CCNC(=O)c1c(C)[nH]c(/C=C2\C(=O)Nc3ccc(F)cc32)c1C [Sunitinib]
Procedure, shortened: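 A plate was accepted only when its control CV was below 25% and the cells had doubled at least once. Viability is defined from nuclear counts as treated wells divided by vehicle wells, with the median taken across plates. That median covers lung cancer cell lines grown in 1536-well plates, dosed by pinning at five √10-spaced library-drug concentrations, and counted in MetaXpress from 4× Hoechst images after 5 days.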

Sunitinib + Palbociclib = compound: CCN(CC)CCNC(=O)c1c(C)[nH]c(/C=C2\C(=O)Nc3ccc(F)cc32)c1C [Sunitinib] + CC(=O)c1c(C)c2cnc(Nc3ccc(N4CCNCC4)cn3)nc2n(C2CCCC2)c1=O [Palbociclib] (partner 0.5 µM)
Procedure, shortened: (§1)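 Cells from lung cancer lines were seeded into 1536-well plates and, one day later, dosed by pin tool. Treatments were either a single drug or a fixed dose of an anchor drug with five library-drug doses (not always all listed) in √10 steps. After 5 days, nuclei were stained in a one-step fixation (final 0.05% Triton X-100, 1% formaldehyde, 1 ug/ml Hoechst) and counted on 4× images, and relative viability is the treated-to-vehicle nuclei ratio, as the median of duplicate plates.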

Sunitinib + Foretinib = compound: CCN(CC)CCNC(=O)c1c(C)[nH]c(/C=C2\C(=O)Nc3ccc(F)cc32)c1C [Sunitinib] + COc1cc2c(Oc3ccc(NC(=O)C4(C(=O)Nc5ccc(F)cc5)CC4)cc3F)ccnc2cc1OCCCN1CCOCC1 [Foretinib] (partner 0.25 µM)
Procedure, shortened: as §1

Sunitinib + OSI-027 = compound: CCN(CC)CCNC(=O)c1c(C)[nH]c(/C=C2\C(=O)Nc3ccc(F)cc32)c1C [Sunitinib] + COc1cccc2cc(-c3nc([C@H]4CC[C@H](C(=O)O)CC4)n4ncnc(N)c34)[nH]c12 [OSI-027] (partner 0.5 µM)
Procedure, shortened: as §1

| Cell Line | relative viability (Sunitinib; 0.02 µM) | relative viability (Sunitinib; 0.06325 µM) | relative viability (Sunitinib; 0.2 µM) | relative viability (Sunitinib; 0.6325 µM) | relative viability (Sunitinib; 2 µM) | relative viability (Sunitinib + Palbociclib; first compound 0.02 µM) | relative viability (Sunitinib + Palbociclib; first compound 0.06325 µM) | relative viability (Sunitinib + Palbociclib; first compound 0.2 µM) | relative viability (Sunitinib + Palbociclib; first compound 0.6325 µM) | relative viability (Sunitinib + Palbociclib; first compound 2 µM) | relative viability (Sunitinib + Foretinib; first compound 0.02 µM) | relative viability (Sunitinib + Foretinib; first compound 0.06325 µM) | relative viability (Sunitinib + Foretinib; first compound 0.2 µM) | relative viability (Sunitinib + Foretinib; first compound 0.6325 µM) | relative viability (Sunitinib + Foretinib; first compound 2 µM) | relative viability (Sunitinib + OSI-027; first compound 0.02 µM) | relative viability (Sunitinib + OSI-027; first compound 0.06325 µM) | relative viability (Sunitinib + OSI-027; first compound 0.2 µM) | relative viability (Sunitinib + OSI-027; first compound 0.6325 µM) | relative viability (Sunitinib + OSI-027; first compound 2 µM) |
| --- | --- | --- | --- | --- | --- | --- | --- | --- | --- | --- | --- | --- | --- | --- | --- | --- | --- | --- | --- | --- |
| NCI-H358 | 0.875 | 0.97 | 1.1 | 0.897 | 0.67 | 0.138 | 0.158 | 0.138 | 0.132 | 0.125 | 0.716 | 0.774 | 0.8 | 0.748 | 0.527 | 0.685 | 0.814 | 0.878 | 0.691 | 0.38 |
| NCI-H441 | 0.863 | – | 1.17 | 1.11 | 1.12 | 0.223 | 0.233 | 0.237 | 0.232 | 0.221 | 0.771 | 0.953 | – | 1.01 | 1.04 | 0.651 | 0.751 | 0.898 | 0.684 | 0.47 |
| NCI-H460 | – | – | 1.05 | 0.995 | 1.08 | 0.157 | 0.189 | 0.124 | 0.226 | 0.171 | 0.879 | 1.08 | 1.03 | 1.05 | 1.06 | 0.593 | 0.717 | 0.78 | 0.768 | 0.467 |
| NCI-H520 | 0.926 | 1.08 | 1.07 | 0.979 | 0.912 | 0.237 | 0.248 | 0.224 | 0.27 | 0.267 | 0.593 | 0.843 | 0.798 | 1 | 0.605 | 0.249 | 0.286 | 0.321 | 0.292 | 0.3 |
| NCI-H647 | 0.991 | 1.14 | 1.03 | 0.989 | 0.956 | 0.328 | 0.398 | 0.406 | 0.43 | 0.316 | – | 1.03 | 1.34 | 1.13 | 1.21 | 0.631 | 0.725 | 0.562 | 0.821 | 0.575 |
| NCI-H650 | 0.906 | 1.1 | 1.01 | 1.03 | 1.08 | 0.298 | 0.338 | 0.308 | 0.355 | 0.396 | 1.03 | 1.01 | 1.06 | 1.11 | 0.975 | 0.535 | 0.553 | 0.524 | 0.586 | 0.514 |
| NCI-H661 | 0.977 | – | 1 | 1.05 | 1.03 | 0.383 | 0.444 | 0.397 | 0.41 | 0.47 | 1.06 | 1.07 | 1.01 | – | 1.04 | 0.646 | 0.785 | 0.801 | 0.767 | 0.704 |
| NCI-H727 | 0.942 | 1.17 | 1.23 | 1.09 | 0.859 | 0.598 | 0.697 | 0.671 | 0.616 | 0.667 | 0.926 | 0.837 | 1.12 | 0.979 | 0.788 | 0.717 | 0.574 | 0.757 | 0.687 | 0.631 |
| NCI-H838 | 0.932 | 1.06 | 1.03 | 0.952 | 0.782 | 0.221 | 0.23 | 0.237 | 0.227 | 0.2 | 1.04 | 1 | 1.14 | 1.08 | 0.826 | 0.386 | 0.358 | 0.423 | 0.319 | 0.317 |
| NCI-H1355 | 0.962 | 1.07 | 1.12 | 1.02 | 1.05 | 0.41 | 0.393 | 0.44 | 0.382 | 0.393 | 0.957 | 0.802 | – | – | 0.68 | 0.431 | 0.455 | 0.441 | 0.437 | 0.365 |
| NCI-H1395 | 1.02 | 1.01 | 0.925 | 0.991 | 0.945 | 0.638 | 0.625 | 0.649 | 0.745 | 0.619 | 0.955 | 0.996 | 1.05 | 1 | 1.14 | 0.648 | 0.701 | 0.632 | 0.739 | 0.697 |
| NCI-H1437 | 1.03 | 1.03 | – | 0.996 | 1.09 | 0.294 | 0.347 | 0.305 | 0.346 | 0.329 | 1.24 | 1.25 | 1.28 | 1.22 | 1.32 | 0.873 | 0.918 | – | 0.855 | 0.885 |
| NCI-H1650 | – | 1.05 | 0.964 | 0.942 | 0.903 | 0.359 | 0.472 | 0.384 | 0.392 | 0.33 | 1.23 | 1.14 | 1.09 | 0.977 | 1.08 | 0.577 | 0.65 | 0.527 | 0.768 | 0.513 |
| NCI-H1651 | 0.938 | 1.1 | – | 0.996 | 1.03 | 0.488 | 0.539 | 0.516 | 0.498 | 0.55 | 0.762 | 0.843 | 0.877 | 0.826 | 0.806 | 0.57 | – | 0.73 | 0.534 | 0.714 |
| NCI-H1666 | 1.02 | 1.07 | 1.1 | 1.05 | – | 0.655 | 0.665 | 0.677 | 0.657 | 0.621 | 0.912 | 1 | 1.05 | 1.04 | 1.01 | 0.835 | 0.877 | 0.924 | 0.924 | 0.822 |
| NCI-H1734 | 0.916 | 1.11 | 1.04 | 1.05 | 0.981 | 0.364 | 0.375 | 0.37 | 0.34 | 0.323 | 0.815 | 0.896 | 0.966 | – | 0.752 | 0.613 | 0.683 | 0.7 | 0.608 | 0.511 |
